The test is described as follows: ID50 determination of amastatin preparations (inhibitory activity). The format is biochemical.
Substance N-acetyl amastatin A2 yielded an ID50 of 450 µg/mL. The substance amastatin A1 displayed an ID50 of 0.65 µg/mL.

In turn, amastatin A2 came in with an ID50 of 0.54 µg/mL. For amastatin A2 dimethyl ester the value was 17 µg/mL. amastatin A3 showed an ID50 of 1.0 µg/mL. In the case of amastatin B2 it was 1.0 µg/mL. For amastatin RB1 the value was 1.50 µg/mL. In the case of “hydrochloric acid salt of amastatin A1 [HCl A1]” it was 0.75 µg/mL.
